The target of the test is T1, Bcl-2 protein (Recombinant Human Bcl-2 Protein) (Homo sapiens, UniProt P10415).
T1 construct: purchased Novus Biologicals NBP2-34889
Nature of the test: AS-MS evaluation of binding of the Example 4 mixture library (1200 compounds/well) to Bcl-2, ASMS ratio (%). The settings on record: AS-MS, mixture of 1200 compounds/well, Bcl-2 protein; for ASMS ratio (%) n = 1: replicate n = 1; for ASMS ratio (%) n = 2: replicate n = 2. As to the method: DMSO solutions (prepared into approximately 0.58 mM based on calculation from the average molecular weight of each mixture) of 12 types of mixtures that could each contain 100 compounds, i.e., mixAI-B4J-01, mixAI-B1M-01, mixAI-B1K-01, mixAI-BIO-01, mixAI-B1A-01, mixAI-B3A-01, mixAI-B21-01, mixAI-B2L-01, mixAI-B2N-01, mixAI-B2A-01, mixAI-B2Q-01, and mixAI-B2R-01, shown in Table AI-03-B4J-01, Table AI-03-B1M-01, Table AI-03-B1K-01, Table AI-03-B10-01, Table AI-03-B1A-01, Table AI-03-B3A-01, Table AI-03-B21-01, Table AI-03-B2L-01, Table AI-03-B2N-01, Table AI-03-B2A-01, Table AI-03-B2Q-01, and Table AI-03-B2R-01 described in Example 4, were respectively dispensed to a total of 12 wells of MICROPLATE, 96-well, PP, V-BOTTOM (Greiner Bio-One International GmbH, 651201). 70 nL each from the 12 wells was collected into any one well using LABCYTE ECHO® 555 acoustic dispensing system (Beckman Coulter, Inc.) to prepare a sample solution in a mixed state of 1200 compounds (the presence of 1152 compounds was already identified when the mixtures were prepared in Example 4). Further, Bcl-2 protein (Novus Biologicals, NBP2-34889, Recombinant Human Bcl-2 Protein, Lot E60145051) (19.2 μL) prepared at 20.9 μM in advance using a Tris-HCl buffer (25 mM Tris-HCl, pH 7.4, 150 mM NaCl, 0.025% Tween-20, and 1 mM DTT) was added to the well containing the dispensed 1200 compounds (the presence of 1152 compounds was already identified when the mixtures were prepared in Example 4) (final compound concentration: 20 nM, final Bcl-2 concentration: 20 μM), and the plate was incubated at 23° C. for 1 hour in the dark. Subsequently, 200 μL of an assay buffer (25 mM Tris-HCl, pH 7.4, 150 mM NaCl, 0.025% Tween-20, and 1 mM DTT) was centrifuged three times at 2000×G at 4° C. for 2 minutes using 96-well MacroSpin column, P-2 Material (Harvard Bioscience, Inc., 74-5655) that had been allowed to swell to condition the 96-well MacroSpin column. Subsequently, 20 μL of the sample thus incubated was added to the 96-well MacroSpin column, P-2 Material after the completion of conditioning, and SEC treatment was performed by centrifugation at 2000×G for 2 minutes. 32 μL of a 1:1 mixed solution of acetonitrile and methanol (LC/MS grade, FUJIFILM Wako Pure Chemical Corp.) was added to a flow-through liquid from SEC, and the mixture was centrifuged at 1800×G at 4° C. for 5 minutes. The supernatant was used as analysis sample ASMS (A). By a similar operation, a sample prepared at 1200 compounds/well and supplemented with only a Tris-HCl buffer containing no Bcl-2 protein was incubated under the same conditions as above, and the same organic solvent as above was added thereto without 96-well MacroSpin column treatment. A supernatant obtained by a centrifugation operation was used as STD (B). Next, by a similar operation, a sample prepared at 1200 compounds/well and supplemented with only a Tris-HCl buffer containing no Bcl-2 protein was incubated under the same conditions as above and treated with 96-well MacroSpin column in the same manner as above, and the same organic solvent as above was added thereto. A supernatant obtained by a centrifugation operation was used as BK (C). These samples were measured by reverse-phase LC/MS.
Then, the samples A, B and C were analyzed for the 1200 compounds using TraceFinder 5.1 (Thermo Fisher Scientific Inc.) and CHANCE Software (in-house), and an ASMS ratio (%) was calculated according to the following expression.
Although m/z of the MS peaks was confirmed down to four decimal places, 0 at the decimal level may be omitted in the description in Table AJ-01. For example, “587.0000” is also referred to as “587”, “587.1000” is also referred to as “587.1”, “587.1200” is also referred to as “587.12”, and “587.1230” is also referred to as “587.123”.

Each structure is given as a SMILES string.

T1 sequence (P10415 whole entry): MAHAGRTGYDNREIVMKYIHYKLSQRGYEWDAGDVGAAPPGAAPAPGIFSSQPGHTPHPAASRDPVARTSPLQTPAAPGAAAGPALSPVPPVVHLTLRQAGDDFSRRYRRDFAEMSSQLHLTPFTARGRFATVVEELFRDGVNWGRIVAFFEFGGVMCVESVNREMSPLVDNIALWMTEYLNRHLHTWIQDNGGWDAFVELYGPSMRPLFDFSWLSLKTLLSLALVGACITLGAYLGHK

On to `CCCNC(=O)c1ccc(N2CCN(Cc3cc(OCC)cc(-c4cncc(OCC)c4)c3)CC2)nn1` [Compound B1M012-01, 6-[4-[[3-Ethoxy-5-(5-ethoxypyridin-3-yl)phenyl]methyl]piperazin-1-yl]-N-propylpyridazine-3-carboxamide], for which the “ASMS ratio (%) n = 1” value is on record as −3.5% and the “ASMS ratio (%) n = 2” value is on record as −2.3%.
In the case of `CCCNC(=O)c1ccc(N2CCN(C(=O)c3ccc(-c4cccc(OCC)c4)c4ccccc34)CC2)nn1` [Compound B1M013-01], the “ASMS ratio (%) n = 1” value was determined as 2.9% and the “ASMS ratio (%) n = 2” value is on record as −1.1%.
On to `CCCNC(=O)c1ccc(N2CCN(C(=O)c3ccc(-c4cncc(OCC)c4)c4ccccc34)CC2)nn1` [Compound B1M014-01], for which the “ASMS ratio (%) n = 1” value is on record as 4.1% and the “ASMS ratio (%) n = 2” value turned out to be 0.4%.
As to `CCCNC(=O)c1ccc(N2CCN(C(=O)c3cc(-c4cccc(OCC)c4)cc(C(C)(C)C)c3)CC2)nn1` [Compound B1M015-01], the “ASMS ratio (%) n = 1” value is reported as −2.4% and the “ASMS ratio (%) n = 2” value is −3.0%.
For `CCCNC(=O)c1ccc(N2CCN(C(=O)c3cc(-c4cncc(OCC)c4)cc(C(C)(C)C)c3)CC2)nn1` [Compound B1M016-01], the “ASMS ratio (%) n = 1” value came to 0.0% and the “ASMS ratio (%) n = 2” value worked out at 0.0%.
On to `CCCNC(=O)c1ccc(N2CCN(C(=O)c3cc(-c4cccc(OCC)c4)cc(C(F)(F)F)c3)CC2)nn1` [Compound B1M017-01], for which the “ASMS ratio (%) n = 1” value is listed as −0.1% and the “ASMS ratio (%) n = 2” value is given as 0.3%.
Take `CCCNC(=O)c1ccc(N2CCN(C(=O)c3cc(-c4cncc(OCC)c4)cc(C(F)(F)F)c3)CC2)nn1` [Compound B1M018-01]: the “ASMS ratio (%) n = 1” value is given as 0.0% and the “ASMS ratio (%) n = 2” value was found to be 0.0%.
`CCCNC(=O)c1ccc(N2CCN(C(=O)c3cc(C#Cc4cccc(OCC)c4)cc(C(F)(F)F)c3)CC2)nn1` [Compound B1M019-01]: the “ASMS ratio (%) n = 1” value worked out at 1.5% and the “ASMS ratio (%) n = 2” value was determined as 0.0%.
Turning to `CCCNC(=O)c1ccc(N2CCN(C(=O)c3cc(C#Cc4cncc(OCC)c4)cc(C(F)(F)F)c3)CC2)nn1` [Compound B1M020-01], the “ASMS ratio (%) n = 1” value was found to be 0.0% and the “ASMS ratio (%) n = 2” value is recorded as 0.0%.
Turning to `CCCNC(=O)c1ccc(N2CCN(C(=O)c3cc(-n4cc(-c5cccc(OCC)c5)cn4)cc(C(F)(F)F)c3)CC2)nn1` [Compound B1M021-01], the “ASMS ratio (%) n = 1” value worked out at 0.0% and the “ASMS ratio (%) n = 2” value was found to be 0.0%.
Regarding `CCCNC(=O)c1ccc(N2CCN(C(=O)c3cc(-n4cc(-c5cncc(OCC)c5)cn4)cc(C(F)(F)F)c3)CC2)nn1` [Compound B1M022-01], the “ASMS ratio (%) n = 1” value was −13.6% and the “ASMS ratio (%) n = 2” value was 6.7%.
On the same counts, the results for `CCCNC(=O)c1ccc(N2CCN(C(=O)c3cc(-c4cccc(OCC)c4)cs3)CC2)cc1` [Compound B1M023-01] are 1.4% and −3.0%.
On the same counts, the results for `CCCNC(=O)c1ccc(N2CCN(C(=O)c3cc(-c4cncc(OCC)c4)cs3)CC2)cc1` [Compound B1M024-01] are 0.0% and 0.0%.
Turning to `CCCNC(=O)c1ccc(N2CCN(C(=O)c3ccc(-c4cccc(OCC)c4)c(C)c3)CC2)cc1` [Compound B1M025-01], the “ASMS ratio (%) n = 1” value was 3.6% and the “ASMS ratio (%) n = 2” value is −1.2%.
For `CCCNC(=O)c1ccc(N2CCN(C(=O)c3ccc(-c4cncc(OCC)c4)c(C)c3)CC2)cc1` [Compound B1M026-01], the “ASMS ratio (%) n = 1” value stood at 0.9% and the “ASMS ratio (%) n = 2” value is 0.9%.
With `CCCNC(=O)c1ccc(N2CCN(C(=O)c3ccc(-c4cccc(OCC)c4)c(F)c3)CC2)cc1` [Compound B1M027-01], the “ASMS ratio (%) n = 1” value amounted to 1.0% and the “ASMS ratio (%) n = 2” value is 0.4%.
Consider `CCCNC(=O)c1ccc(N2CCN(C(=O)c3ccc(-c4cncc(OCC)c4)c(F)c3)CC2)cc1` [Compound B1M028-01], for which the “ASMS ratio (%) n = 1” value was 0.0% and the “ASMS ratio (%) n = 2” value amounted to 0.0%.
As for `CCCNC(=O)c1ccc(N2CCN(Cc3ccc(-c4cccc(OCC)c4)c4ccccc34)CC2)cc1` [Compound B1M065-01], the “ASMS ratio (%) n = 1” value stood at 0.2% and the “ASMS ratio (%) n = 2” value is recorded as −6.4%.
Regarding `CCCNC(=O)c1ccc(N2CCN(Cc3cc(-c4cccc(OCC)c4)cs3)CC2)cc1` [Compound B1M067-01], the “ASMS ratio (%) n = 1” value was −1.6% and the “ASMS ratio (%) n = 2” value is recorded as −87.4%.
Turning to `CCCNC(=O)c1ccc(N2CCN(Cc3cc(-c4cncc(OCC)c4)cs3)CC2)cc1` [Compound B1M068-01], the “ASMS ratio (%) n = 1” value was determined as 1.1% and the “ASMS ratio (%) n = 2” value is listed as 0.0%.
Take `CCCNC(=O)c1ccc(N2CCN(Cc3ccc(-c4cccc(OCC)c4)c(C)c3)CC2)nn1` [Compound B1M073-01]: the “ASMS ratio (%) n = 1” value is on record as 0.4% and the “ASMS ratio (%) n = 2” value is reported as −0.5%.
On the same counts, the results for `CCCNC(=O)c1ccc(N2CCN(Cc3ccc(-c4cncc(OCC)c4)c(C)c3)CC2)nn1` [Compound B1M074-01] are −1.6% and 0.9%.
For the compound `CCCNC(=O)c1ccc(N2CCN(Cc3ccc(-c4cccc(OCC)c4)c(F)c3)CC2)nn1` [Compound B1M077-01], the “ASMS ratio (%) n = 1” value is recorded as −0.7% and the “ASMS ratio (%) n = 2” value was found to be 3.1%.
`CCCNC(=O)c1ccc(N2CCN(Cc3ccc(-c4cncc(OCC)c4)c(F)c3)CC2)nn1` [Compound B1M078-01]: the “ASMS ratio (%) n = 1” value was found to be 0.0% and the “ASMS ratio (%) n = 2” value amounted to 0.0%.
Regarding `CCCNC(=O)c1ccc(N2CCN(Cc3cc(-c4cccc(OCC)c4)cc(C(F)(F)F)c3)CC2)nn1` [Compound B1M087-01], the “ASMS ratio (%) n = 1” value was found to be 3.8% and the “ASMS ratio (%) n = 2” value stood at 3.2%.
On the same counts, the results for `CCCNC(=O)c1ccc(N2CCN(Cc3cc(-c4cncc(OCC)c4)cc(C(F)(F)F)c3)CC2)nn1` [Compound B1M088-01] are 0.0% and 0.0%.
Turning to `CCCNC(=O)c1ccc(N2CCN(Cc3cc(-c4cccc(OCC)c4)cs3)CC2)nn1` [Compound B1M093-01], the “ASMS ratio (%) n = 1” value stood at 0.0% and the “ASMS ratio (%) n = 2” value turned out to be 0.0%.
Regarding `CCCNC(=O)c1ccc(N2CCN(Cc3cc(-c4cncc(OCC)c4)cs3)CC2)nn1` [Compound B1M094-01], the “ASMS ratio (%) n = 1” value is on record as −1.5% and the “ASMS ratio (%) n = 2” value is recorded as −2.1%.
With `CCCNC(=O)c1ccc(N2CCN(C(C)c3ccc(-c4cccc(OCC)c4)cc3)CC2)cc1` (stereo not shown) [Compound B1M097-01], the “ASMS ratio (%) n = 1” value was found to be 1.1% and the “ASMS ratio (%) n = 2” value turned out to be 0.3%.
Consider `CCCNC(=O)c1ccc(N2CCN(C(C)c3ccc(-c4cncc(OCC)c4)cc3)CC2)cc1` (stereo not shown) [Compound B1M098-01], for which the “ASMS ratio (%) n = 1” value was determined as 0.9% and the “ASMS ratio (%) n = 2” value amounted to 0.3%.
With `CCOc1cccc(-c2ccc(CN3CCN(c4ccc(C(=O)Nc5ccc(OC)cc5)nn4)CC3)c3ccccc23)c1` [Compound B1O091-01, 6-[4-[[4-(3-Ethoxyphenyl)naphthalen-1-yl]methyl]piperazin-1-yl]-N-(4-methoxyphenyl)pyridazine-3-carboxamide], the “ASMS ratio (%) n = 2” value is −2.2%.

(Values after US20250154686A1, “COMPOUND LIBRARY” (CHUGAI SEIYAKU KABUSHIKI KAISHA, priority 2021, published 2025).)
